Where two headings read alike, the source gives them in different places.
Molecular target: T1, F508del (Homo sapiens, UniProt P13569, DEL508-508)
T1 construct: expressed in transfected cells
Test: Protocol 2: FRET membrane potential optical assay (VIPR), identification of correction compounds
Type: cell-based
Summary of the method: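 NIH3T3 mouse fibroblasts stably expressing F508del were treated with test compound for 16 hrs at 37° C. in serum-free medium; 27° C. incubation served as positive control. F508del was activated with 10 μM forskolin plus 20 μM genistein in Cl^−-free medium, and Cl^− efflux-driven depolarization was read by DiSBAC2(3)/CC2-DMPE FRET.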

[1] = F508del CFTR modulator activity, compounds of Table 1, read-out: EC30

T1 sequence (P13569 with tags, fused parts or gaps DEL508-508): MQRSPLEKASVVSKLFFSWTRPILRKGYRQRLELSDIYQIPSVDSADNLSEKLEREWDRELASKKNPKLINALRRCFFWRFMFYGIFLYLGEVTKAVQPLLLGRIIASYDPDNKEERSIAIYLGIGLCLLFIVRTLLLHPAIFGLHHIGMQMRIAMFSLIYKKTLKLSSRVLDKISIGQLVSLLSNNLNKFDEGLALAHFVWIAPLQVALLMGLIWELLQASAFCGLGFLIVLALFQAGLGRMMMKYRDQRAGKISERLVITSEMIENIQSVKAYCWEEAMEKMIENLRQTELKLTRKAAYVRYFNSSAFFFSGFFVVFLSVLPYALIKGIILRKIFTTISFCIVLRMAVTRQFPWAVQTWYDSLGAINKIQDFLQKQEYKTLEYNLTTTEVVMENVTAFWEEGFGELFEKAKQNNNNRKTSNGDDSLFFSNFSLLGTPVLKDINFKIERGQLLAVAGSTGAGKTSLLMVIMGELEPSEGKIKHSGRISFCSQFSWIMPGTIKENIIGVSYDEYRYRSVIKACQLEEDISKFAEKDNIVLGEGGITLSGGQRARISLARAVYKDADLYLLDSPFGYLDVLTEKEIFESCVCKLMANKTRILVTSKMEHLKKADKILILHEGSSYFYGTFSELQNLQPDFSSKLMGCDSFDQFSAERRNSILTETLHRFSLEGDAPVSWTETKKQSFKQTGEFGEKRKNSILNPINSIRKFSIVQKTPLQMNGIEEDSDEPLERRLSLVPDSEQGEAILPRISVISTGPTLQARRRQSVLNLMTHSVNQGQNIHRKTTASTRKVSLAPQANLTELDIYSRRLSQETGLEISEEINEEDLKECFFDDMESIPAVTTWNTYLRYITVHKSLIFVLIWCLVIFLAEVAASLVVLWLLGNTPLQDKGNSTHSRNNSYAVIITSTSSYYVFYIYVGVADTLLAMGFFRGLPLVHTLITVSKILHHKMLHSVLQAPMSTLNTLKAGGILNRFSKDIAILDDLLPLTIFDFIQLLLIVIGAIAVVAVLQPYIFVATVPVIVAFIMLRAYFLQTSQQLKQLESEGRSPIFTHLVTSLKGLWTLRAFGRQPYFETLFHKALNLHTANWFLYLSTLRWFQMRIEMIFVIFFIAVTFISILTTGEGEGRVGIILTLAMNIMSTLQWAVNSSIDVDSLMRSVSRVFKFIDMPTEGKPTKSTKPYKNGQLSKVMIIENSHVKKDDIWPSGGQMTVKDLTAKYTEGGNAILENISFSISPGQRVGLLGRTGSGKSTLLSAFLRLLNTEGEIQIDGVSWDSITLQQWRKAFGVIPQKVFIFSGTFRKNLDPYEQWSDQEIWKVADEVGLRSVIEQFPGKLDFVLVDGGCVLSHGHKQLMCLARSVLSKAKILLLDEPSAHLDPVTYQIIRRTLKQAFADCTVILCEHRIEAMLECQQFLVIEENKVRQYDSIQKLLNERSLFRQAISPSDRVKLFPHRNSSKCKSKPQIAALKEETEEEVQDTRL

`[2H]C1([2H])[C@@H](C)CC(C)(C)N1c1nc(-c2cc(F)cc(OCC(C)C)c2)ccc1C(=O)NS(=O)(=O)c1ccccc1` [Compound 2560, N-(benzenesulfonyl)-2-[(3S)-2,2-dideuterio-3,5,5-trimethyl-pyrrolidin-1-yl]-6-(3-fluoro-5-isobutoxy-phenyl)pyridine-3-carboxamide] was tested, and the EC30 was under 3 µM.
With `CC1CN(c2ncccc2C(=O)NS(=O)(=O)c2cccc(N3CCCC3)n2)C(C)(C)C1` (stereo not shown) [Compound 2561, N-[(6-pyrrolidin-1-yl-2-pyridyl)sulfonyl]-2-(2,2,4-trimethylpyrrolidin-1-yl)pyridine-3-carboxamide] the EC30 [1] was under 3 µM.
With `COc1cccc(-c2ccc(C(=O)NS(=O)(=O)c3cccnc3N)c(N3C[C@@H](C)CC3(C)C)n2)c1F` [Compound 2562, N-[(2-amino-3-pyridyl)sulfonyl]-6-(2-fluoro-3-methoxy-phenyl)-2-[(4S)-2,2,4-trimethylpyrrolidin-1-yl]pyridine-3-carboxamide] the EC30 [1] was under 3 µM.
In the case of `CC1CN(c2ncccc2C(=O)NS(=O)(=O)c2cccc(Oc3ccc(-n4cccc4)cc3)n2)C(C)(C)C1` (stereo not shown) [Compound 2563, N—[[6-(4-pyrrol-1-ylphenoxy)-2-pyridyl]sulfonyl]-2-(2,2,4-trimethylpyrrolidin-1-yl)pyridine-3-carboxamide], the EC30 [1] was under 3 µM.
Work on `COc1ncc(-c2ccc(C(=O)NS(=O)(=O)c3cccnc3N)c(N3C[C@@H](C)CC3(C)C)n2)cc1C` [Compound 2564, N-[(2-amino-3-pyridyl)sulfonyl]-6-(6-methoxy-5-methyl-3-pyridyl)-2-[(4S)-2,2,4-trimethylpyrrolidin-1-yl]pyridine-3-carboxamide] yielded an EC30 [1] of under 3 µM.
Compound `CCC(CC)N1CCN(c2cccc(S(=O)(=O)NC(=O)c3cccnc3N3CC(C)CC3(C)C)n2)CC1` (stereo not shown) [Compound 2565, N—[[6-[4-(1-ethylpropyl)piperazin-1-yl]-2-pyridyl]sulfonyl]-2-(2,2,4-trimethylpyrrolidin-1-yl)pyridine-3-carboxamide] has an EC30 [1] of 3 to 10 µM.
For `C[C@@H]1CN(c2nc(-c3cccc(F)c3)ccc2C(=O)NS(=O)(=O)c2cccc(N)n2)C(C)(C)C1` [Compound 2566, N-[(6-amino-2-pyridyl)sulfonyl]-6-(3-fluorophenyl)-2-[(4S)-2,2,4-trimethylpyrrolidin-1-yl]pyridine-3-carboxamide], the EC30 [1] was under 3 µM.
`COc1ccc(-c2ccc(C(=O)NS(=O)(=O)c3ccc[nH]c3=O)c(N3C[C@@H](C)CC3(C)C)n2)c(F)c1F` [Compound 2567, 6-(2,3-difluoro-4-methoxy-phenyl)-N-[(2-oxo-1H-pyridin-3-yl)sulfonyl]-2-[(4S)-2,2,4-trimethylpyrrolidin-1-yl]pyridine-3-carboxamide] showed an EC30 [1] of under 3 µM.
For `C[C@@H]1CN(c2nc(C3=CCCN(C(=O)NC(C)(C)C)C3)ccc2C(=O)NS(=O)(=O)c2cccc(N)n2)C(C)(C)C1` [Compound 2568, N-[(6-amino-2-pyridyl)sulfonyl]-6-[1-(tert-butylcarbamoyl)-3,6-dihydro-2H-pyridin-5-yl]-2-[(4S)-2,2,4-trimethylpyrrolidin-1-yl]pyridine-3-carboxamide], the EC30 [1] was 3 to 10 µM.
For `CC(=O)c1cccc(Oc2cccc(S(=O)(=O)NC(=O)c3cccnc3N3CC(C)CC3(C)C)n2)c1` (stereo not shown) [Compound 2569, N—[[6-(3-acetylphenoxy)-2-pyridyl]sulfonyl]-2-(2,2,4-trimethylpyrrolidin-1-yl)pyridine-3-carboxamide], the EC30 [1] was under 3 µM.
Work on `CCOc1cccc(-c2ccc(C(=O)NS(=O)(=O)N3CC[C@H](N)C3)c(N3C[C@@H](C)CC3(C)C)n2)c1` [Compound 2570, N-[(3S)-3-aminopyrrolidin-1-yl]sulfonyl-6-(3-ethoxyphenyl)-2-[(4S)-2,2,4-trimethylpyrrolidin-1-yl]pyridine-3-carboxamide] yielded an EC30 [1] of 3 to 10 µM.
For `COc1ccc(Nc2cccc(S(=O)(=O)NC(=O)c3cccnc3N3CC(C)CC3(C)C)n2)cc1Cl` (stereo not shown) [Compound 2571, N—[[6-(3-chloro-4-methoxy-anilino)-2-pyridyl]sulfonyl]-2-(2,24-trimethylpyrrolidin-1-yl)pyridine-3-carboxamide], the EC30 [1] was under 3 µM.
In the case of `Cc1cccc(Nc2cccc(S(=O)(=O)NC(=O)c3cccnc3N3CC(C)CC3(C)C)n2)c1` (stereo not shown) [Compound 2572, N—[[6-(3-methylanilino)-2-pyridyl]sulfonyl]-2-(2,2,4-trimethylpyrrolidin-1-yl)pyridine-3-carboxamide], the EC30 [1] was under 3 µM.
Compound `CC(C)COc1cc(F)cc(-c2ccc(C(=O)NS(=O)(=O)c3cccc(N)n3)c(N3CC(C(F)(F)F)CC3(C)C)n2)c1` (stereo not shown) [Compound 2573] has an EC30 [1] of under 3 µM.
In the case of `CC1CN(c2ncccc2C(=O)NS(=O)(=O)c2cccc(NC3CC3)n2)C(C)(C)C1` (stereo not shown) [Compound 2574, N—[[6-(cyclopropylamino)-2-pyridyl]sulfonyl]-2-(2,2,4-trimethylpyrrolidin-1-yl)pyridine-3-carboxamide], the EC30 [1] was 3 to 10 µM.
Compound `COc1cc(C)c(-c2ccc(C(=O)NS(=O)(=O)c3ccc[nH]c3=O)c(N3C[C@@H](C)CC3(C)C)n2)c(C)c1` [Compound 2575, 6-(4-methoxy-2,6-dimethyl-phenyl)-N-[(2-oxo-1H-pyridin-3-yl)sulfonyl]-2-[(4S)-2,2,4-trimethylpyrrolidin-1-yl]pyridine-3-carboxamide] has an EC30 [1] of under 3 µM.
For `CC[C@@H](C)Oc1ncc(-c2ccc(C(=O)NS(=O)(=O)c3cccc(N)n3)c(N3C[C@@H](C)CC3(C)C)n2)cc1C` [Compound 2576, N-[(6-amino-2-pyridyl)sulfonyl]-6-[5-methyl-6-[(1R)-1-methylpropoxy]-3-pyridyl]-2-[(4S)-2,2,4-trimethylpyrrolidin-1-yl]pyridine-3-carboxamide], the EC30 [1] was under 3 µM.
`C[C@@H]1CN(c2nc(-n3ccc(OCC(C)(C)C)n3)ccc2C(=O)NS(=O)(=O)c2ccc[nH]c2=O)C(C)(C)C1` [Compound 2578, 6-[3-(2,2-dimethylpropoxy)pyrazol-1-yl]-N-[(2-oxo-1H-pyridin-3-yl)sulfonyl]-2-[(4S)-2,2,4-trimethylpyrrolidin-1-yl]pyridine-3-carboxamide] gave an EC30 [1] of under 3 µM.
`COc1ccc(CNc2cccc(S(=O)(=O)NC(=O)c3cccnc3N3CC(C)CC3(C)C)n2)cc1` (stereo not shown) [Compound 2579, N—[[6-[(4-methoxyphenyl)methylamino]-2-pyridyl]sulfonyl]-2-(2,2,4-trimethylpyrrolidin-1-yl)pyridine-3-carboxamide] showed an EC30 [1] of under 3 µM.
In the case of `CC1CN(c2ncccc2C(=O)NS(=O)(=O)c2cccc(N3Cc4ccc(F)cc4C3)n2)C(C)(C)C1` (stereo not shown) [Compound 2580, N—[[6-(5-fluoroisoindolin-2-yl)-2-pyridyl]sulfonyl]-2-(2,2,4-trimethylpyrrolidin-1-yl)pyridine-3-carboxamide], the EC30 [1] was under 3 µM.
`CC(C)COc1cc(F)cc(-c2ccc(C(=O)NS(=O)(=O)c3cccc(N)n3)c(N3CCC(C)CC3(C)C)n2)c1` (stereo not shown) [Compound 2581, N-[(6-amino-2-pyridyl)sulfonyl]-6-(3-fluoro-5-isobutoxy-phenyl)-2-(2,2,4-trimethyl-1-piperidyl)pyridine-3-carboxamide] was tested, and the EC30 [1] was under 3 µM.
With `COCCOc1ncc(-c2ccc(C(=O)NS(=O)(=O)c3cccc(N)n3)c(N3C[C@@H](C)CC3(C)C)n2)cc1C` [Compound 2582, N-[(6-amino-2-pyridyl)sulfonyl]-6-[6-(2-methoxyethoxy)-5-methyl-3-pyridyl]-2-[(4S)-2,2,4-trimethylpyrrolidin-1-yl]pyridine-3-carboxamide] the EC30 [1] was under 3 µM.
